Results from patent US20200253870A1, “A LDV LIPOSOMAL FORMULATION OF PHOTO SYSTEM-I FOR TREATMENT OF CANCER” (priority 2016, published 2020).
In brackets after ≈: the same amount, converted by molar mass.

Columns and labels:
[1] = test system: B16F10 cells; test: MTT cell viability assay in B16F10 cells; format: cell-based; details: Mus musculus, B16-F10, B16F10, 15.62 μg/mL, Table 5 comparison, 24 h
Experimental: B16F10 and A375 cells were treated with the LDV liposomal formulation of PSI and cellular viability was checked using MTT assay. It is a colorimetric assay where MTT (Methyl thiazolyl diphenyl-tetrazolium bromide), a yellow tetrazole compound, is reduced to purple formazan by cellular reductase enzymes of live cells. Dead cells cannot do this type of reduction and are not able to develop the purple colour. […] The live cells are called as viable cells and it is denoted as % viability in the Y-axis. On the X-axis four different concentrations of the said formulation was plotted. The absorbance at 550 nm was measured and the % viability was calculated.
(§1) Cells were seeded at a density of 10000 cells per well in 96-well plate before 24 hours of treatment. Cells were treated with different concentrations of LDV liposomal formulation of PSI. After that cells were incubated for 48 hours in complete media. MTT solution (5 mg/mL) was prepared in PBS. 50 μL of MTT solution was added into each well and incubated at 37° C. for 4 hours. Purple colored formazan was dissolved in 1:1 (v/v) DMSO/MeOH and absorbances of the wells were measured at 550 nm by micro-plate ELISA reader. The % viability from this absorbance values was calculated.

[2] = test system: A375 cells; test: FACS analysis for apoptosis (annexin V/PI) in A375 cells; format: cell-based, human; details: A375, 15.62 μg/mL
Experimental: Furthermore FACS analysis using apoptosis detection kit has been performed. FACS analysis, have ascertained that the LDV liposomal formulation of PSI caused apoptotic death of B16F10 and A375 cells (FIGS. 4 and 5). Inventors have performed apoptosis assay using annexin V/PI in B16F10 and A375 cell to compare the amount of apoptotic death of cancer cell due to application of 15.62 μg/mL concentration of LDV liposomal PSI and doxorubicin. Inventors have found large amount of apoptotic death of both the cancer cells (A375 and B16F10) due to LDV liposomal PSI.
Fluorescence activated cell sorting (FACS) experiment was performed for studying the type of cell death. The cell death pathway of B16F10 cells in FACS using apoptosis detection kit was studied. Cells were seeded at a density of ˜5×10^5 cells per well in a 6-well plate before 24 hours of treatment. The cells were treated with solutions of LDV liposomal formulation of PSI. After that cells were incubated for 48 hours. Cells were trypsinized and washed with PBS by help of centrifugation. […] After this another 400 μL of assay buffer was added to the cells and these total 500 μL of cell solution was analyzed by FACS. The emission of Annexin V and PI was detected in the FITC and PI channels of BD LSRFORTESA flow cytometer using emission filters at 530 and 610 nm respectively. […] Data was analyzed using FACS DIVA software. […]

[3] = test system: A375 cells; test: cells; format: cell-based, human; details: A-375, MTT
Experimental: B16F10 and A375 cells were treated with the LDV liposomal formulation of PSI and cellular viability was checked using MTT assay. […] Therefore an idea about the amount of cells lived after the treatment of LDV liposomal formulation of PSI with respect to those cells (control) which are not treated with the peptide. […] The absorbance at 550 nm was measured and the % viability was calculated.
as §1
A375 cells were seeded at a density of 10000 cells per well in 96-well plate before 24 hours of treatment. Cells were treated with LDV-liposome-PSI and doxorubicin for 24 hours. MTT assay as described was performed and IC50 value was calculated using CompuSyn software.

[4] = MTT cell viability assay in WI38 normal cells; format: cell-based; details: human, WI38, 15.62 μg/mL, Table 5 comparison
Experimental: B16F10 and WI38 cells were seeded in a 96-well plate at density of 10000 cells per well before 24 h of treatment. Cells were treated with LDV liposomal PSI and normal liposomal PSI separately in complete media for 24 h. After 24 h, MTT assay was performed. […] In case of normal liposomal PSI, inventors have found similar amount of cell viability for both B16F10 and WI38 cells.
B16F10 and A375 cells were treated with the LDV liposomal formulation of PSI and cellular viability was checked using MTT assay. It is a colorimetric assay where MTT (Methyl thiazolyl diphenyl-tetrazolium bromide), a yellow tetrazole compound, is reduced to purple formazan by cellular reductase enzymes of live cells. Dead cells cannot do this type of reduction and are not able to develop the purple colour. Therefore an idea about the amount of cells lived after the treatment of LDV liposomal formulation of PSI with respect to those cells (control) which are not treated with the peptide. The live cells are called as viable cells and it is denoted as % viability in the Y-axis. On the X-axis four different concentrations of the said formulation was plotted. The absorbance at 550 nm was measured and the % viability was calculated.
% Viability=[(A550Treated Cells−A550 Backgrounds)/(A550Untreated Cells−A550 Backgrounds)]*100.

[5] = test system: B16F10 cells; test: FACS analysis for apoptosis (annexin V/PI) in B16F10 cells; format: cell-based, mouse; details: B16F10, 15.62 μg/mL, 48 hours
Experimental: Fluorescence activated cell sorting (FACS) experiment was performed for studying the type of cell death. The cell death pathway of B16F10 cells in FACS using apoptosis detection kit was studied. Cells were seeded at a density of ˜5×10^5 cells per well in a 6-well plate before 24 hours of treatment. The cells were treated with solutions of LDV liposomal formulation of PSI. After that cells were incubated for 48 hours. Cells were trypsinized and washed with PBS by help of centrifugation. Cells were incubated in dark at 37° C. for 30 minutes with a 100 μL solution of assay buffer containing 2.5 μL of Propidium iodide (PI) and 2.5 μL of annexin V. All these reagents were supplied along with the apoptosis detection kit (Santa Cruz Biotechnology). The stock concentration of Propidium iodide and annexin V was 50 μg/mL and 200 μg/mL respectively. After this another 400 μL of assay buffer was added to the cells and these total 500 μL of cell solution was analyzed by FACS. The emission of Annexin V and PI was detected in the FITC and PI channels of BD LSRFORTESA flow cytometer using emission filters at 530 and 610 nm respectively. In the represented data, cells in the Q1, Q2 and Q4 quadrants are regarded as necrotic, late apoptotic and early apoptotic cells respectively. Cells in the Q3 quadrant are regarded as normal cells or healthy cells. Data was analyzed using FACS DIVA software. […]

COc1cccc2c1C(=O)c1c(O)c3c(c(O)c1C2=O)C[C@@](O)(C(=O)CO)C[C@@H]3O[C@H]1C[C@H](N)[C@H](O)[C@H](C)O1 [Doxorubicin]
viability at 15.62 µg/mL [1]: 19.9% | Amount of Apoptotic death of cancer cell (%) [2]: 100% | IC50 ([3]; A375, Melanoma (human), CompuSyn software): 10.2 µg/mL (≈ 18.7 µM) | viability at 3.12 µg/mL ([3]; Homo sapiens, A375, 3.12 μg/mL): 94% | viability at 6.25 µg/mL ([3]; Homo sapiens, A375, 6.25 μg/mL): 59.2% | viability at 12.5 µg/mL ([3]; Homo sapiens, A375, 12.5 μg/mL): 31.5% | viability at 25 µg/mL ([3]; Homo sapiens, A375, 25 μg/mL): 11.7% | viability at 50 µg/mL ([3]; Homo sapiens, A375, 50 μg/mL): 4.9% | viability at 100 µg/mL ([3]; Homo sapiens, A375, 100 μg/mL): 6.09% | viability at 24 h, 15.62 μg/mL [4]: 65.2% | Amount of Apoptotic death of cancer cell (%) [5]: 99.9%
